# Experimental data: article PMC11417994, “Cyclohexanediamine Triazole (CHDT) Functionalization Enables Labeling of Target Molecules with Al^18F/^68Ga/^111In” (Bioconjugate Chemistry, 2024)
# “And” between values parts separate entries of the source, which are not always exact repeats. Equal values may be shown once.
# Assays:
# [1] = n-Octanol/PBS distribution coefficient (logD7.4); assay type: physicochemical; conditions: Table S1 individual values
# Description: The log D7.4 values were determined as follows: 500 μL of n-octanol and 450 μL of PBS (pH 7.4) were premixed prior to the addition of 50 μL of the respective radiolabeled compound. The mixture was vigorously stirred for 30 min at 22 °C, and thereafter centrifuged for 5 min at 7,500g at 22 °C. Aliquots of the n-octanol and the aqueous phases were transferred to measuring tubes, and the activity counts in both phases were measured in a gamma counter (Hidex Deutschland Vertrieb GmbH, Germany). The logarithm of the quotient of the activity counts from the n-octanol and the aqueous phase was calculated, which is equal to the log D7.4 value.
# PSMA [2] = biological target: T1, PSMA (Homo sapiens, UniProt Q04609); test: Saturation binding (surface-bound and internalized), LNCaP spheroids
# T1 construct: Detection of endogenous PSMA expression in LNCaP and PC3 cells relative to β-actin expression by Western; host or cells: LNCaP human prostate carcinoma cells (monolayer, spheroids or Potter-Elvehjem homogenates)
# Source text: (§1) In addition to assessing the binding affinities for nonlabeled CHDT-PSMA-1/2/3, we sought to characterize the saturation binding of the Al^18F-, ^68Ga-, and ^111In-labeled compounds using LNCaP cells cultured in monolayers and as spheroids. The saturation binding curves for Al[^18F]F-CHDT-PSMA-1/2/3 are depicted in Figure 3, while the graphs for [^18F]PSMA-1007 and ^68Ga- and ^111In-labeled CHDT-PSMA-1/2/3 can be found in Figures S7–S9 in the Supporting Information. The binding parameters (Kd and Bmax) for Al[^18F]F-CHDT-PSMA-1/2/3 and [^18F]PSMA-1007 are summarized in Table 3 (for the ^68Ga- and ^111In-labeled compounds see Tables S4 and S5 in the Supporting Information). For the saturation binding assays, we recorded surface-bound radioligand (named “binding”), which refers to bound radioligand that can be removed by acid wash, and internalized or acid-resistant radioligand (named “internalization”), which refers to radioligand that remains cell-bound after acid wash. Consequently, two saturation binding plots were obtained and two sets of binding parameters (Kd/Bmax and Kd,int/Bmax,int) were derived.
# For the formation of spheroids, the LNCaP cells were incubated overnight in a normal culture bottle with biocompatible nanoparticles ([…] with 80 μL of a suspension consisting of Au, Fe2O3 and poly-L-lysine called Nanoshuttle, Greiner Bio-One GmbH, Germany). After harvesting and cell counting, 10,000 cells/well of a 24-well plate or 7,000 cells/well of a 96-well plate (cell-repellent plates) were sown. The well plates were placed on matching plates with button magnets (Greiner Bio-One GmbH, Germany). The magnetized LNCaP cells formed suitable spheroids that were used after 5 d.
# (§2) For saturation assays in well plates, monolayers of LNCaP (sowing 5 × 10^4 cells/well in 48-well plates 2 days before the assay), as well as LNCaP spheroids were incubated with radiolabeled CHDT-PSMA-1/2/3 and PSMA-1007 (0.2 nM to 100 nM) with adjacent samples receiving KuE (0.8 mM) at 37 °C for 2 h. The number of experiments can be derived from the data in the Tables S4, S5, and S7 in the Supporting Information. After removing the incubation medium and washing of cells with ice-cold PBS (containing Mg^2+ and Ca^2+) the surface-bound activity was stripped with 4 °C cold acid-wash buffer (0.2 M glycine, 0.15 M NaCl, pH 3.0) for 10 min. The acid wash buffer was transferred from the wells to measuring tubes, as was the PBS buffer after washing once. Cytosolic activity (internalized radioligand) was determined after treatment with cell lysis buffer (1% SDS in 0.1 M NaOH) at 37 °C for 30 min. Cell surface and cytosolic activity were measured separately in a gamma counter. Time-depending internalization assays were performed only with cells in monolayer. The incubation (radioligand concentration 13 nM) for these assays was terminated after 10 min, 1 and 3 h, with ^111In and ^177Lu additionally after 24 and 48 h at 37 °C, respectively. During the internalization assays adjacent samples received KuE (0.8 mM) for PSMA blocking, methyl-β-cyclodextrin (MβCD; 3 mM) or KuE together with MβCD, 1 h before radioligand application. The number of experiments can be derived from the data of Figure S11 and associated table and from Table S8 in the Supporting Information.
# (§3) Dissociations constants (Kd and Kd,int), as well as maximal binding capacities (Bmax and Bmax,int), were derived from specific binding data by nonlinear regression according to the model of “One site-specific binding” as implemented in GraphPad Prism 10. Protein content was determined using the bicinchoninic acid protein assay kit (Pierce, Thermo Scientific) to calculate the binding capacities in pmol/mg and for the time-depending internalization the internalized percent of administrated dose per μg protein (% AD/μg protein).
# [3] = Serum stability assay in human serum (radio-TLC/radio-HPLC); assay type: in vitro ADME; conditions: 37 °C, radio-TLC; for Percentage of intact radioligand after 3 h in human serum: Table 1 mean ± SEM, Table S1 individual values
# Description: To investigate the serum stability of the radiolabeled CHDTA-PSMA-1/2/3, human serum (frozen, from male AB clotted whole blood; Sigma-Aldrich/Merck) was centrifuged for 5 min at 20,000g at 4 °C after thawing. The supernatant was sterile filtrated (filter pore 0.2 μm). Four parts serum and one part of radioligand were incubated at 37 °C with shaking. Aliquots were taken after 3 h and for the ^111In-labeled compounds also after 24 and 48 h, and residual intact radiolabeled compound was determined by radio-TLC and/or radio-HPLC. For analysis by radio-HPLC, the aliquots were mixed with Supersol (mixture for protein precipitation that consists of 20% ethanol, 0.5% Triton X-100, 5 mM EDTA and 0.1% saponin)[72] and kept on ice for 5 min. After centrifugation for 5 min at 20,000g at 4 °C, the supernatant was used for radio-HPLC analysis.
# PSMA [4] = biological target: T1, PSMA; test: Competition binding assay, LNCaP cell homogenates, radioligand [177Lu]Lu-PSMA-617; conditions: nonlabeled compounds; [177Lu]Lu-PSMA-617 12 nM; 37 °C, 60 min; Table 2 mean (SEM), Table S3 individual experiments and mean
# Description: The binding affinity of the nonlabeled CHDT-PSMA-1/2/3, PSMA-1007, PSMA-617, and KuE was assessed in competition binding assays using LNCaP cell homogenates (∼1 × 10^6 cells/mL using Potter-Elvehjem) and the radioligand [^177Lu]Lu-PSMA-617 (n = 5 for CHDT-PSMA-1; n = 4 for CHDT-PSMA-2/3; n = 2 for PSMA-1007; n = 8 for PSMA-617; n = 6 for KuE). […] The assays were performed in a final volume of 200 μL. The incubation was stopped by washing the homogenate with cold PBS four times using a filter (Whatman GF/C, 90 min presoaked in 0.3% polyethylenimine) in a cell harvester (Brandel, USA). The radioactivity bound to the filter was measured in a gamma counter. Filter binding was determined for adjacent samples without cell homogenate. The experiments were performed two to four times in triplicates or quadruplicates. Inhibitory constants (Ki) were derived from nonlinear regression according to the model of “One site – Fit Ki” as implemented in GraphPad Prism 10. The Kd value of [^177Lu]Lu-PSMA-617 was determined in saturation binding assays using LNCaP cell homogenates to be 15.2 (±2.1) nM.
# PSMA [5] = biological target: T1, PSMA; test: Saturation binding (surface-bound and internalized), intact LNCaP cells as monolayer
# Source text: as §1, §2, §3
# [6] = pH 7.4, radiolabel Al^18F, Table 1 mean ± SEM of three experiments
# [7] = pH 7.4, radiolabel ^68Ga, Table 1 mean ± SEM
# [8] = pH 7.4, radiolabel ^111In, Table 1 mean ± SEM
# [9] = Al^18F-labeled conjugate or [18F]PSMA-1007, acid-resistant fraction, read-out: Kd,int (internalization)
# [10] = Al^18F-labeled conjugate or [18F]PSMA-1007, surface-bound
# [11] = Al^18F-labeled conjugate or [18F]PSMA-1007, surface-bound, read-out: Kd (binding)
# [12] = Al^18F-labeled conjugate or [18F]PSMA-1007, surface-bound, 37 °C, 2 h, read-out: Kd (binding)
# [13] = [111In]In-labeled conjugate, surface-bound
# T1 sequence (Q04609 whole entry): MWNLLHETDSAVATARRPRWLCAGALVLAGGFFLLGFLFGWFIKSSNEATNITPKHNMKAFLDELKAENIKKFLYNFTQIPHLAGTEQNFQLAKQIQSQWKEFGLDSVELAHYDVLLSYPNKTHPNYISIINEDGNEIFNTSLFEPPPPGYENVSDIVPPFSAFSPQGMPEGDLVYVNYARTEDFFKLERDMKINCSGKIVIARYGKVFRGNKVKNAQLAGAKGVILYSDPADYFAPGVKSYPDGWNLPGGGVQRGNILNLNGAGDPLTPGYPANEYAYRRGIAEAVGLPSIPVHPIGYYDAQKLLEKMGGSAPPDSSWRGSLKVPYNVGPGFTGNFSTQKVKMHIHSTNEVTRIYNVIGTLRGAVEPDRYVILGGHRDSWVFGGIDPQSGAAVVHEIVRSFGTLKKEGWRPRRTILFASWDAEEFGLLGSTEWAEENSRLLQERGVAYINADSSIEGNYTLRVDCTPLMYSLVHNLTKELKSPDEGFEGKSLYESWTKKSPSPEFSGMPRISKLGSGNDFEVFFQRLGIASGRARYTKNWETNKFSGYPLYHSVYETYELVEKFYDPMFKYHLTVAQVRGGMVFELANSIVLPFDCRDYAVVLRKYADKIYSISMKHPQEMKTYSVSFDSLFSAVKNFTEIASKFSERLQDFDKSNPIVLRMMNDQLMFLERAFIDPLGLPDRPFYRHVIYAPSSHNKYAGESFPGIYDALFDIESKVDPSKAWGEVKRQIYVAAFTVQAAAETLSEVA
Compound,"logD [1, 6]","logD [1, 7]","logD [1, 8]",Kd (PSMA [2]; [9]),Bmax (binding) (PSMA [2]; [10]),Kd (PSMA [2]; [11]),"Bmax,int (internalization) (PSMA [2]; [111In]In-labeled conjugate)",Percentage of intact radioligand after 3 h in human serum ([3]; radiolabel Al^18F),Percentage of intact radioligand after 3 h in human serum ([3]; radiolabel ^68Ga),"Percentage of intact radioligand after 3 h in human serum ([3]; radiolabel ^111In, 3 h)",Percentage of intact radioligand in human serum after 24 h (*) ([3]; radiolabel ^111In),Percentage of intact radioligand in human serum after 48 h (**) ([3]; radiolabel ^111In),Ki (PSMA [4]),Kd (PSMA [5]; [9]),Bmax (binding) (PSMA [5]; [10]),Kd (PSMA [5]; [12]),"Bmax,int (internalization) (PSMA [2]; [68Ga]Ga-labeled conjugate, only one assay)",Bmax (binding) (PSMA [2]; [13]),"Bmax,int (internalization) (PSMA [5]; [111In]In-labeled conjugate)",Bmax (binding) (PSMA [5]; [13])
O=C(O)CCC(NC(=O)NC(CCCCNC(=O)Cn1cc(CN(CC(=O)O)[C@@H]2CCCC[C@H]2N(CC(=O)O)CC(=O)O)nn1)C(=O)O)C(=O)O (mixture of isomers) [CHDT-PSMA-1],-3.6,-3.36,-4.23,37.4 ± 10.7 nM,1.49 ± 0.36 pmol/mg,41.5 ± 26.4 nM,0.03 pmol/mg and 0.06 pmol/mg and 0.04 pmol/mg,98.9% and 99.0% and 98.8% and 98.9 ± 0.1%,98.8% and 94.4% and 96.6 ± 2.2 %,99.7% and 99.3% and 99.4% and 99.5 ± 0.1%,99.8% and 99.5% and 99.6 ± 0.1%,99.7% and 99.3% and 98.9% and 99.3 ± 0.2%,85.5 nM and 120 nM and 86.9 nM and 152 nM and 132 nM and 115 nM,18.4 ± 7.3 nM,1.87 ± 0.57 pmol/mg,26.4 ± 11 nM,,,,
O=C(O)CCC(NC(=O)NC(CCCCNC(=O)[C@H](Cc1ccc2ccccc2c1)NC(=O)[C@H]1CC[C@H](CNC(=O)CCCCn2cc(CN(CC(=O)O)[C@@H]3CCCC[C@H]3N(CC(=O)O)CC(=O)O)nn2)CC1)C(=O)O)C(=O)O (mixture of isomers) [CHDT-PSMA-3],-3.43,-3.09,-3.87,36.4 ± 14.6 nM,,38.6 ± 25.8 nM,0.31 pmol/mg and 0.33 pmol/mg and 0.32 pmol/mg,99.2% and 99.6% and 99.3 ± 0.1%,98.6% and 99.6% and 99.3% and 99.1 ± 0.4%,99.5% and 98.8% and 99.2% and 99.2 ± 0.2%,98.9% and 99.6% and 99.1 ± 0.2%,99.9% and 99.5% and 98.7% and 99.4 ± 0.4%,7.65 nM and 3.21 nM and 9.15 nM and 12.6 nM and 8.1 nM,14.4 ± 7.3 nM,2.18 ± 0.97 pmol/mg,19.7 ± 8.4 nM,0.75 pmol/mg,0.21 pmol/mg and 0.40 pmol/mg and 0.30 pmol/mg,0.65 pmol/mg and 0.49 pmol/mg and 0.57 pmol/mg,0.50 pmol/mg and 0.91 pmol/mg and 0.70 pmol/mg
O=C(O)CCC(NC(=O)NC(CCCCNC(=O)[C@@H](Cc1cccc2ccccc12)NC(=O)CCCCCn1cc(CN(CC(=O)O)[C@@H]2CCCC[C@H]2N(CC(=O)O)CC(=O)O)nn1)C(=O)O)C(=O)O (mixture of isomers) [CHDT-PSMA-2],-3.34,-3.11,-3.44,15.7 ± 0.8 nM,1.07 ± 0.13 pmol/mg,15.8 ± 4.4 nM,0.20 pmol/mg and 0.10 pmol/mg and 0.15 pmol/mg,99.3% and 98.7% and 99.1 ± 0.2%,97.7% and 97.4% and 97.0% and 97.6 ± 0.1%,99.6% and 98.3% and 98.6% and 98.8 ± 0.4%,98.9% and 98.8% and 97.6% and 98.4 ± 0.4%,99.9% and 98.5% and 97.6% and 98.7 ± 0.7%,48.1 nM and 71.2 nM and 40.5 nM and 34.5 nM and 49 nM,14.4 ± 4.8 nM,1.33 ± 0.10 pmol/mg,12.9 ± 4 nM,,0.15 pmol/mg and 0.25 pmol/mg and 0.20 pmol/mg,0.25 pmol/mg and 0.17 pmol/mg and 0.21 pmol/mg,
